Test results from ChEMBL document CHEMBL1142177, “Effects of age, gender, and race/ethnicity on the pharmacokinetics of posaconazole in healthy volunteers” (Antimicrob Agents Chemother, 2007).

Columns and labels:
Assay type in all cases: ADME, organism-based
Homo sapiens [1] = assay: AUC (0-12 hrs) in 18-45 yr old woman plasma at 400 mg, po twice daily after 8 days; design: time < 12 hr, dose 400 mg, route oral; details: in vivo
Homo sapiens [2] = assay: AUC (0-12 hrs) in black racial/ethnic human plasma at 400 mg, po twice daily after 8 days; design: dose 400 mg, time < 12 hr, route oral; details: in vivo
[3] = Half life in >=65 yr old man plasma at 400 mg, po twice daily after 8 days; details: male, human
Homo sapiens [4] = assay: AUC (0-12 hrs) in >=65 yr old man plasma at 400 mg, po twice daily after 8 days; design: time < 12 hr, dose 400 mg, route oral; details: in vivo
Homo sapiens [5] = assay: AUC (0-12 hrs) in >=65 yr old woman plasma at 400 mg, po twice daily after 8 days; design: dose 400 mg, time < 12 hr, route oral; details: in vivo
[6] = Cmax in >=65 yr old woman plasma at 400 mg, po twice daily after 8 days; design: dose 400 mg, route oral; details: female, human
Homo sapiens [7] = assay: AUC (0-12 hrs) in 18-45 yr old man plasma at 400 mg, po twice daily after 8 days; design: time < 12 hr, dose 400 mg, route oral; details: in vivo
[8] = Cmax in >=65 yr old man plasma at 400 mg, po twice daily after 8 days; design: dose 400 mg, route oral; details: male, human
[9] = Cmax in 18-45 yr old human plasma at 400 mg, po twice daily after 8 days; design: dose 400 mg, route oral
[10] = Tmax in >=65 yr old man plasma at 400 mg, po twice daily after 8 days; details: male, human
Homo sapiens [11] = assay: Apparent total clearance in 18-45 yr old human plasma at 400 mg, po twice daily after 8 days; details: in vivo, 192 h
Homo sapiens [12] = assay: AUC (0-12 hrs) in white racial/ethnic human plasma at 400 mg, po twice daily after 8 days; design: time < 12 hr, dose 400 mg, route oral; details: in vivo
Homo sapiens [13] = assay: Apparent total clearance in black racial/ethnic human plasma at 400 mg, po twice daily after 8 days; details: in vivo, 192 h
[14] = Cmax in white racial/ethnic human plasma at 400 mg, po twice daily after 8 days; design: dose 400 mg, route oral
Homo sapiens [15] = assay: (§1) AUC (0-12 hrs) in >=65 yr old human plasma at 400 mg, po twice daily after 8 days; design: time < 12 hr, dose 400 mg, route oral; details: in vivo
Homo sapiens [16] = assay: Apparent total clearance in >=65 yr old human plasma at 400 mg, po twice daily after 8 days; details: in vivo, 192 h
[17] = Cmax in 18-45 yr old woman plasma at 400 mg, po twice daily after 8 days; design: dose 400 mg, route oral; details: female, human
[18] = Tmax in 18-45 yr old man plasma at 400 mg, po twice daily after 8 days; details: male, human
[19] = Tmax in >=65 yr old woman plasma at 400 mg, po twice daily after 8 days; details: female, human
[20] = Tmax in white racial/ethnic human plasma at 400 mg, po twice daily after 8 days
[21] = Cmax in >=65 yr old human plasma at 400 mg, po twice daily after 8 days; design: dose 400 mg, route oral
Homo sapiens [22] = assay: AUC (0-12 hrs) in 18-45 yr old human plasma at 400 mg, po twice daily after 8 days; design: dose 400 mg, time < 12 hr, route oral; details: in vivo
[23] = Half life in 18-45 yr old human plasma at 400 mg, po twice daily after 8 days
Homo sapiens [24] = assay: Apparent total clearance in >=65 yr old man plasma at 400 mg, po twice daily after 8 days; details: in vivo, 192 h
Homo sapiens [25] = assay: Apparent total clearance in white racial/ethnic human plasma at 400 mg, po twice daily after 8 days; details: in vivo, 192 h
Homo sapiens [26] = assay: Apparent total clearance in >=65 yr old woman plasma at 400 mg, po twice daily after 8 days; details: in vivo, 192 h
[27] = Half life in white racial/ethnic human plasma at 400 mg, po twice daily after 8 days
[28] = Tmax in black racial/ethnic human plasma at 400 mg, po twice daily after 8 days
[29] = Cmax in 18-45 yr old man plasma at 400 mg, po twice daily after 8 days; design: dose 400 mg, route oral; details: male, human
[30] = Half life in 18-45 yr old man plasma at 400 mg, po twice daily after 8 days; details: male, human
Homo sapiens [31] = assay: Apparent total clearance in 18-45 yr old man plasma at 400 mg, po twice daily after 8 days; details: in vivo, 192 h
[32] = as §1
[33] = Tmax in >=65 yr old human plasma at 400 mg, po twice daily after 8 days
[34] = Tmax in 18-45 yr old woman plasma at 400 mg, po twice daily after 8 days; details: female, human
Homo sapiens [35] = assay: Apparent total clearance in 18-45 yr old woman plasma at 400 mg, po twice daily after 8 days; details: in vivo, 192 h
[36] = Tmax in 18-45 yr old human plasma at 400 mg, po twice daily after 8 days
[37] = Cmax in black racial/ethnic human plasma at 400 mg, po twice daily after 8 days; design: dose 400 mg, route oral
[38] = Half life in black racial/ethnic human plasma at 400 mg, po twice daily after 8 days
[39] = Half life in >=65 yr old woman plasma at 400 mg, po twice daily after 8 days; details: female, human
[40] = Half life in 18-45 yr old woman plasma at 400 mg, po twice daily after 8 days; details: female, human

CC[C@@H]([C@H](C)O)n1ncn(-c2ccc(N3CCN(c4ccc(OC[C@@H]5CO[C@@](Cn6cncn6)(c6ccc(F)cc6F)C5)cc4)CC3)cc2)c1=O [POSACONAZOLE]
AUC (Homo sapiens [1]): 25507 ng·h/mL
AUC (Homo sapiens [2]): 25107 ng·h/mL
half-life [3]: 37.7 h
AUC (Homo sapiens [4]): 32963 ng·h/mL
AUC (Homo sapiens [5]): 37924 ng·h/mL
Cmax [6]: 3500 ng/mL
AUC (Homo sapiens [7]): 27784 ng·h/mL
Cmax [8]: 3250 ng/mL
Cmax [9]: 2610 ng/mL
Tmax [10]: 5 h
CL (Homo sapiens [11]): 33.1 L/h
AUC (Homo sapiens [12]): 30091 ng·h/mL
CL (Homo sapiens [13]): 37 L/h
Cmax [14]: 2860 ng/mL
AUC (Homo sapiens [15]): 35444 ng·h/mL
CL (Homo sapiens [16]): 26.7 L/h
Cmax [17]: 2520 ng/mL
Tmax [18]: 4 h
Tmax [19]: 6 h
Tmax [20]: 5 h
Cmax [21]: 3370 ng/mL
AUC (Homo sapiens [22]): 26740 ng·h/mL
half-life [23]: 31.6 h
CL (Homo sapiens [24]): 28.1 L/h
CL (Homo sapiens [25]): 54 L/h
CL (Homo sapiens [26]): 25.4 L/h
half-life [27]: 37.3 h
Tmax [28]: 5 h
Cmax [29]: 2680 ng/mL
half-life [30]: 31.3 h
CL (Homo sapiens [31]): 33.5 L/h
half-life [32]: 41.8 h
Tmax [33]: 5 h
Tmax [34]: 5 h
CL (Homo sapiens [35]): 32.6 L/h
Tmax [36]: 5 h
Cmax [37]: 2400 ng/mL
half-life [38]: 32.2 h
half-life [39]: 42.4 h
half-life [40]: 31.9 h
